Assay results published in ChEMBL document CHEMBL1201862, “PubChem BioAssay data set” (2004).
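Growth conditions: 96-well plates. Treatment: test compound, 48 hours, 5 concentrations. Analysis: linear interpolation between bracketing concentrations; unreached endpoints set to highest concentration. GI50: concentration for 50% inhibition of growth.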 Active and inactive are the calls of the source. Cut-off read from the data, not from the text of the source: active = GI50 up to about 1.1 µM and inactive = higher.

Assays:
Assay in all cases: NCI anticancer screen, dose series, 48 h
SK-MEL-2 = tested on: SK-MEL-2
SNB-19 = tested on: SNB-19
SF-268 = tested on: SF-268
NCI-H522 = tested on: NCI-H522
M14 = tested on: M14
DMS-114 = tested on: DMS-114
SN12C = tested on: SN12C
HL-60 = tested on: HL-60
KM-20L2 = tested on: KM-20L2
HCT-116 = tested on: HCT-116
CAKI-1 = tested on: CAKI-1
OVCAR-4 = tested on: OVCAR-4
HOP-18 = tested on: HOP-18
SNB-75 = tested on: SNB-75
DLD-1 = tested on: DLD-1
786-0 = tested on: 786-0
LOX IMVI = tested on: LOX IMVI
RXF 393 = tested on: RXF 393
SF-295 = tested on: SF-295
A549 = tested on: A549
A498 = tested on: A498
CCRF-CEM = tested on: CCRF-CEM
NCI-H23 = tested on: NCI-H23
DMS-273 = tested on: DMS-273
SK-MEL-28 = tested on: SK-MEL-28
NCI-H226 = tested on: NCI-H226
MOLT-4 = tested on: MOLT-4
UACC-257 = tested on: UACC-257
OVCAR-8 = tested on: OVCAR-8
OVCAR-3 = tested on: OVCAR-3
LXFL 529 = tested on: LXFL 529
KM12 = tested on: KM12
Malme-3M = tested on: Malme-3M
SK-OV-3 = tested on: SK-OV-3
M19-MEL = tested on: M19-MEL
RPMI-8226 = tested on: RPMI-8226
K562 = tested on: K562
NCI-H460 = tested on: NCI-H460
SW-620 = tested on: SW-620
OVCAR-5 = tested on: OVCAR-5
HCT-15 = tested on: HCT-15
HCC 2998 = tested on: HCC 2998
COLO 205 = tested on: COLO 205
TK-10 = tested on: TK-10
UO-31 = tested on: UO-31
SNB-78 = tested on: SNB-78
SF-539 = tested on: SF-539
HOP-62 = tested on: HOP-62
IGROV-1 = tested on: IGROV-1
ACHN = tested on: ACHN
U-251 = tested on: U-251
HT-29 = tested on: HT-29
UACC-62 = tested on: UACC-62
SK-MEL-5 = tested on: SK-MEL-5
EKVX = tested on: EKVX
HOP-92 = tested on: HOP-92
XF498 = tested on: XF498

COC(OC)c1cccc2c1C(=O)CCC1(CC2)OCCCCO1
GI50 (SK-MEL-2): > 100 µM (inactive) | GI50 (SNB-19): > 100 µM (inactive) | GI50 (SF-268): > 100 µM (inactive) | GI50 (NCI-H522): > 100 µM (inactive) | GI50 (M14): > 100 µM (inactive) | GI50 (DMS-114): > 100 µM (inactive) | GI50 (SN12C): > 100 µM (inactive) | GI50 (HL-60): > 100 µM (inactive) | GI50 (KM-20L2): > 100 µM (inactive) | GI50 (HCT-116): > 100 µM (inactive) | GI50 (CAKI-1): > 100 µM (inactive) | GI50 (OVCAR-4): > 100 µM (inactive) | GI50 (HOP-18): > 100 µM (inactive) | GI50 (SNB-75): > 100 µM (inactive) | GI50 (DLD-1): > 100 µM (inactive) | GI50 (786-0): > 100 µM (inactive) | GI50 (LOX IMVI): > 100 µM (inactive) | GI50 (RXF 393): > 100 µM (inactive) | GI50 (SF-295): > 100 µM (inactive) | GI50 (A549): > 100 µM (inactive) | GI50 (A498): > 100 µM (inactive) | GI50 (CCRF-CEM): > 100 µM (inactive) | GI50 (NCI-H23): > 100 µM (inactive) | GI50 (DMS-273): > 100 µM (inactive) | GI50 (SK-MEL-28): > 100 µM (inactive) | GI50 (NCI-H226): > 100 µM (inactive) | GI50 (MOLT-4): > 100 µM (inactive) | GI50 (UACC-257): > 100 µM (inactive) | GI50 (OVCAR-8): > 100 µM (inactive) | GI50 (OVCAR-3): > 100 µM (inactive) | GI50 (LXFL 529): > 100 µM (inactive) | GI50 (KM12): > 100 µM (inactive) | GI50 (Malme-3M): > 100 µM (inactive) | GI50 (SK-OV-3): > 100 µM (inactive) | GI50 (M19-MEL): > 100 µM (inactive) | GI50 (RPMI-8226): > 100 µM (inactive) | GI50 (K562): > 100 µM (inactive) | GI50 (NCI-H460): > 100 µM (inactive) | GI50 (SW-620): > 100 µM (inactive) | GI50 (OVCAR-5): > 100 µM (inactive) | GI50 (HCT-15): > 100 µM | GI50 (HCC 2998): > 100 µM (inactive) | GI50 (COLO 205): > 100 µM (inactive) | GI50 (TK-10): > 100 µM (inactive) | GI50 (UO-31): > 100 µM (inactive) | GI50 (SNB-78): > 100 µM (inactive) | GI50 (SF-539): > 100 µM (inactive) | GI50 (HOP-62): > 100 µM (inactive) | GI50 (IGROV-1): > 100 µM (inactive) | GI50 (ACHN): > 100 µM (inactive) | GI50 (U-251): > 100 µM (inactive) | GI50 (HT-29): > 100 µM (inactive) | GI50 (UACC-62): > 100 µM (inactive) | GI50 (SK-MEL-5): > 100 µM (inactive)

CC(=O)NNc1nc(C)c(C(=O)NNC(=O)C(=O)Nc2ccc(Cl)cc2Cl)s1
GI50 (SK-MEL-2): 44.1 µM (inactive) | GI50 (SNB-19): 42.6 µM (inactive) | GI50 (SF-268): 27.4 µM (inactive) | GI50 (NCI-H522): 19.5 µM (inactive) | GI50 (M14): 42.5 µM (inactive) | GI50 (DMS-114): 33.2 µM (inactive) | GI50 (SN12C): 45.6 µM (inactive) | GI50 (HL-60): 37.4 µM (inactive) | GI50 (KM-20L2): 40.1 µM (inactive) | GI50 (HCT-116): 47.2 µM (inactive) | GI50 (CAKI-1): 28.3 µM (inactive) | GI50 (OVCAR-4): 22 µM (inactive) | GI50 (DLD-1): 38.4 µM (inactive) | GI50 (786-0): 40.7 µM (inactive) | GI50 (LOX IMVI): 33.7 µM (inactive) | GI50 (SF-295): 42.1 µM (inactive) | GI50 (A549): 35.9 µM (inactive) | GI50 (CCRF-CEM): 20.6 µM (inactive) | GI50 (NCI-H23): 32.8 µM (inactive) | GI50 (SK-MEL-28): 39.9 µM (inactive) | GI50 (NCI-H226): 34.2 µM (inactive) | GI50 (MOLT-4): 20.1 µM (inactive) | GI50 (UACC-257): 31 µM (inactive) | GI50 (OVCAR-8): 40.2 µM (inactive) | GI50 (OVCAR-3): 19.6 µM (inactive) | GI50 (LXFL 529): 29.4 µM (inactive) | GI50 (KM12): 53.7 µM (inactive) | GI50 (EKVX): 40.1 µM (inactive) | GI50 (Malme-3M): 57 µM (inactive) | GI50 (SK-OV-3): 31.9 µM (inactive) | GI50 (M19-MEL): 38.4 µM (inactive) | GI50 (RPMI-8226): 31.3 µM (inactive) | GI50 (K562): 21 µM (inactive) | GI50 (NCI-H460): > 10 µM (inactive) | GI50 (SW-620): 22.2 µM (inactive) | GI50 (OVCAR-5): 55.1 µM (inactive) | GI50 (HCT-15): 38.5 µM | GI50 (HOP-92): 25.9 µM (inactive) | GI50 (HCC 2998): 40.6 µM (inactive) | GI50 (COLO 205): 35.9 µM (inactive) | GI50 (TK-10): 74.3 µM (inactive) | GI50 (UO-31): 28.2 µM (inactive) | GI50 (SNB-78): 36.6 µM (inactive) | GI50 (SF-539): 30.1 µM (inactive) | GI50 (HOP-62): 38.5 µM (inactive) | GI50 (IGROV-1): 63.5 µM (inactive) | GI50 (ACHN): 29.2 µM (inactive) | GI50 (U-251): 31.1 µM (inactive) | GI50 (XF498): 30.1 µM (inactive) | GI50 (HT-29): 48.5 µM (inactive) | GI50 (UACC-62): 25.2 µM (inactive) | GI50 (SK-MEL-5): 30.5 µM (inactive)

O=C1OC(=O)C23CSCC12C1C=CC3O1 (centres undefined)
GI50 (SK-MEL-2): > 100 µM (inactive) | GI50 (SNB-19): > 100 µM (inactive) | GI50 (SF-268): > 100 µM (inactive) | GI50 (NCI-H522): > 100 µM (inactive) | GI50 (M14): > 100 µM (inactive) | GI50 (DMS-114): > 100 µM (inactive) | GI50 (SN12C): > 100 µM (inactive) | GI50 (HL-60): > 100 µM (inactive) | GI50 (KM-20L2): > 100 µM (inactive) | GI50 (HCT-116): > 100 µM (inactive) | GI50 (CAKI-1): > 100 µM (inactive) | GI50 (SNB-75): > 100 µM (inactive) | GI50 (DLD-1): > 100 µM (inactive) | GI50 (786-0): > 100 µM (inactive) | GI50 (LOX IMVI): > 100 µM (inactive) | GI50 (RXF 393): > 100 µM (inactive) | GI50 (SF-295): > 100 µM (inactive) | GI50 (A549): > 100 µM (inactive) | GI50 (A498): > 100 µM (inactive) | GI50 (CCRF-CEM): > 100 µM (inactive) | GI50 (NCI-H23): > 100 µM (inactive) | GI50 (DMS-273): > 100 µM (inactive) | GI50 (SK-MEL-28): > 100 µM (inactive) | GI50 (NCI-H226): > 100 µM (inactive) | GI50 (MOLT-4): > 100 µM (inactive) | GI50 (UACC-257): > 100 µM (inactive) | GI50 (OVCAR-8): > 100 µM (inactive) | GI50 (OVCAR-3): > 100 µM (inactive) | GI50 (LXFL 529): > 100 µM (inactive) | GI50 (KM12): > 100 µM (inactive) | GI50 (EKVX): > 100 µM (inactive) | GI50 (Malme-3M): > 100 µM (inactive) | GI50 (SK-OV-3): > 100 µM (inactive) | GI50 (M19-MEL): > 100 µM (inactive) | GI50 (RPMI-8226): > 100 µM (inactive) | GI50 (K562): > 100 µM (inactive) | GI50 (NCI-H460): > 100 µM (inactive) | GI50 (SW-620): > 100 µM (inactive) | GI50 (OVCAR-5): > 100 µM (inactive) | GI50 (HCT-15): > 100 µM | GI50 (HCC 2998): > 100 µM (inactive) | GI50 (COLO 205): > 100 µM (inactive) | GI50 (TK-10): > 100 µM (inactive) | GI50 (UO-31): > 100 µM (inactive) | GI50 (SF-539): > 100 µM (inactive) | GI50 (HOP-62): > 100 µM (inactive) | GI50 (IGROV-1): > 100 µM (inactive) | GI50 (ACHN): > 100 µM (inactive) | GI50 (U-251): > 100 µM (inactive) | GI50 (XF498): > 100 µM (inactive) | GI50 (HT-29): > 100 µM (inactive) | GI50 (UACC-62): > 100 µM (inactive) | GI50 (SK-MEL-5): > 100 µM (inactive)
